Assay results reported in PubChem BioAssay AID330 (DTP/NCI, 2004).
Where “and” joins values, the source holds several entries; their conditions need not be identical. Equal entries are not always repeated. Toxic doses and inconclusive results are not listed. The calls were made as follows: active = survival T/C of 150% or more; inactive = T/C below 125% in these data. Peptide text beside a SMILES is read from it. * marks the point of attachment. Boc = CC(C)(C)OC(=O)*

Test system: P388 leukemia ip, CD2F1 mice, survival T/C
Assay: NCI In Vivo Anticancer Drug Screen. Data for tumor model P388 Leukemia (intraperitoneal) in CD2F1 (CDF1) mice
Details: endpoint: median survival time, higher = longer survival
Procedure, shortened: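 Mice carrying the transplanted tumor received test compound or vehicle. Survival was recorded in each group, and the value is the treated-group measurement divided by that of the vehicle-treated control group.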

[1] = dose: 25.0 mg/kg/injection, schedule: Q04DX003 (ip), vehicle: saline
[2] = dose: 50.0 mg/kg/injection, schedule: Q04DX003 (ip), vehicle: saline with Tween-80
[3] = dose: 50.0 mg/kg/injection, schedule: Q04DX003 (ip), vehicle: saline
[4] = dose: 100.0 mg/kg/injection, schedule: Q04DX003 (ip), vehicle: saline with Tween-80
[5] = dose: 12.5 mg/kg/injection, schedule: Q01DX005 (ip), vehicle: saline
[6] = dose: 25.0 mg/kg/injection, schedule: Q01DX005 (ip), vehicle: saline
[7] = dose: 50.0 mg/kg/injection, schedule: Q01DX005 (ip), vehicle: saline
[8] = dose: 50.0 mg/kg/injection, schedule: Q01DX005 (ip), vehicle: Klucel (hydroxypropylcellulose) (HPC)
[9] = dose: 100.0 mg/kg/injection, schedule: Q01DX005 (ip), vehicle: Klucel (hydroxypropylcellulose) (HPC)
[10] = dose: 200.0 mg/kg/injection, schedule: Q01DX005 (ip), vehicle: Klucel (hydroxypropylcellulose) (HPC)
[11] = dose: 50.0 mg/kg/injection, schedule: Q01DX005 (ip), vehicle: saline with Tween-80
[12] = dose: 100.0 mg/kg/injection, schedule: Q01DX005 (ip), vehicle: saline with Tween-80
[13] = dose: 200.0 mg/kg/injection, schedule: Q01DX005 (ip), vehicle: saline with Tween-80
[14] = dose: 50.0 mg/kg/injection, schedule: Q01DX009 (ip), vehicle: saline with Tween-80
[15] = dose: 100.0 mg/kg/injection, schedule: Q01DX009 (ip), vehicle: saline with Tween-80
[16] = dose: 200.0 mg/kg/injection, schedule: Q01DX009 (ip), vehicle: saline with Tween-80
[17] = dose: 60.0 mg/kg/injection, schedule: Q01DX005 (ip), vehicle: saline
[18] = dose: 120.0 mg/kg/injection, schedule: Q01DX005 (ip), vehicle: saline
[19] = dose: 240.0 mg/kg/injection, schedule: Q01DX005 (ip), vehicle: saline
[20] = dose: 100.0 mg/kg/injection, schedule: Q01DX005 (ip), vehicle: saline

Measured: T/C

CC(Cc1ccccc1)C(=O)Nc1ccccc1 (stereo not drawn)
inactive: dose: 100.0 mg/kg/injection, schedule: Q04DX002 (ip), vehicle: saline with Tween-80 91 % of control | dose: 200.0 mg/kg/injection, schedule: Q04DX002 (ip), vehicle: saline with Tween-80 94 % of control | dose: 400.0 mg/kg/injection, schedule: Q04DX002 (ip), vehicle: saline with Tween-80 91 % of control

COC(/C=N/O)c1ccccc1 (stereo not drawn)
inactive: dose: 25.0 mg/kg/injection, schedule: Q04DX003 (ip), vehicle: saline with Tween-80 100 % of control | [1] 109 % of control | [2] 100 % of control and 94 % of control | [3] 101 % of control | [4] 106 % of control and 87 % of control | dose: 100.0 mg/kg/injection, schedule: Q04DX003 (ip), vehicle: saline 101 % of control | dose: 200.0 mg/kg/injection, schedule: Q04DX003 (ip), vehicle: saline 105 % of control

COc1cc(C(=O)C(CN(C)C)CN(C)C)cc(OC)c1OC
inactive: [5] 101 % of control | [6] 100 % of control | [7] 107 % of control and 114 % of control

O=C1c2ccccc2C(=O)c2c1nc1sccn21
inactive: dose: 3.12 mg/kg/injection, schedule: Q01DX005 (ip), vehicle: Klucel (hydroxypropylcellulose) (HPC) 104 % of control | dose: 6.25 mg/kg/injection, schedule: Q01DX005 (ip), vehicle: Klucel (hydroxypropylcellulose) (HPC) 108 % of control | dose: 12.5 mg/kg/injection, schedule: Q01DX005 (ip), vehicle: Klucel (hydroxypropylcellulose) (HPC) 102 % of control and 104 % of control | [8] 105 % of control

CSCCC(NC(=O)OC(C)(C)C)C(=O)NC(Cc1ccccc1)C(=O)O (stereo not drawn) (Boc-Met-Phe-OH; configuration not given here)
inactive: [8] 100 % of control | [9] 100 % of control | [10] 106 % of control

O=C(Nc1ccc(Sc2ccc(N=Nc3c(O)c(S(=O)(=O)O)cc4cc(S(=O)(=O)O)ccc34)cc2)cc1)c1ccc(N=Nc2c(O)c(S(=O)(=O)O)cc3cc(S(=O)(=O)O)ccc23)cc1
inactive: [11] 98 % of control | [12] 104 % of control | [13] 104 % of control

c1ccc(N=N/C(=N\Nc2ccccc2)SCCS/C(N=Nc2ccccc2)=N/Nc2ccccc2)cc1
inactive: dose: 25.0 mg/kg/injection, schedule: Q01DX009 (ip), vehicle: saline with Tween-80 98 % of control and 97 % of control | [14] 93 % of control and 97 % of control | [15] 111 % of control and 92 % of control | [16] 98 % of control

NC(CC(=O)O)c1ccccc1 (stereo not drawn)
inactive: [14] 107 % of control | [15] 102 % of control | [16] 102 % of control | dose: 400.0 mg/kg/injection, schedule: Q01DX009 (ip), vehicle: saline with Tween-80 90 % of control

Cc1ccc(OP(=O)(Oc2ccc(C)cc2)Oc2ccc(C)cc2)cc1.Cc1ccc(OP(=O)(Oc2ccc(C)cc2)Oc2ccc(C)cc2)cc1.Cc1ccc(OP(=O)(Oc2ccc(C)cc2)Oc2ccc(C)cc2)cc1.Cc1ccc(OP(=O)(Oc2ccc(C)cc2)Oc2ccc(C)cc2)cc1.[Ni+2].[O-][Cl+3]([O-])([O-])O
inactive: dose: 20.0 mg/kg/injection, schedule: Q01DX001 (ip), vehicle: Klucel (hydroxypropylcellulose) (HPC) 100 % of control | dose: 40.0 mg/kg/injection, schedule: Q01DX001 (ip), vehicle: Klucel (hydroxypropylcellulose) (HPC) 106 % of control | dose: 80.0 mg/kg/injection, schedule: Q01DX001 (ip), vehicle: Klucel (hydroxypropylcellulose) (HPC) 97 % of control

Cc1ccc(S(=O)(=O)NCCCCCCNS(=O)(=O)c2ccc(C)cc2)cc1
inactive: [8] 86 % of control and 90 % of control | [9] 89 % of control | [10] 86 % of control and 91 % of control

CN1CCc2cccc3c2[C@H]1Cc1ccc(O)c(O)c1-3
inactive: [8] 95 % of control | [9] 92 % of control

CCOC(=O)[C]1([Bi]([CH3])[CH3])N=NC(C(=O)OC)=C1C(=O)OC (stereo not drawn)
inactive: [1] 93 % of control | [3] 97 % of control | [4] 99 % of control

OC(Cn1cccc1)Cn1cccc1
inactive: [17] 100 % of control | [18] 103 % of control | [19] 100 % of control

OC1CNCc2cc3c(cc21)OCO3 (stereo not drawn)
inactive: [17] 110 % of control | [18] 107 % of control | [19] 100 % of control

CCCCOC(=O)N[C@H]1CCc2cc(OC)c(OC)c(OC)c2-c2ccc(SC)c(=O)cc21
inactive: dose: 0.38 mg/kg/injection, schedule: Q01DX009 (ip), vehicle: Klucel (hydroxypropylcellulose) (HPC) 112 % of control | dose: 0.75 mg/kg/injection, schedule: Q01DX009 (ip), vehicle: Klucel (hydroxypropylcellulose) (HPC) 122 % of control and 123 % of control | dose: 1.5 mg/kg/injection, schedule: Q01DX009 (ip), vehicle: Klucel (hydroxypropylcellulose) (HPC) 114 % of control | dose: 12.0 mg/kg/injection, schedule: Q01DX009 (ip), vehicle: Klucel (hydroxypropylcellulose) (HPC) 94 % of control

COc1cc2c(cc1OC)CC[N+](Cc1ccc([N+](=O)[O-])cc1)=C2
inactive: dose: 12.5 mg/kg/injection, schedule: Q01DX001 (ip), vehicle: saline + alcohol 98 % of control | dose: 25.0 mg/kg/injection, schedule: Q01DX001 (ip), vehicle: saline + alcohol 95 % of control | dose: 50.0 mg/kg/injection, schedule: Q01DX001 (ip), vehicle: saline + alcohol 95 % of control

CC1(c2ccccc2)Nc2ccccc2C1=Nc1ccccc1 (stereo not drawn)
inactive: [2] 99 % of control | [4] 96 % of control | dose: 200.0 mg/kg/injection, schedule: Q04DX003 (ip), vehicle: saline with Tween-80 100 % of control

C[N+]1=C(c2ccc[nH]2)CC(C(=O)[O-])CC1 (stereo not drawn)
inactive: dose: 60.0 mg/kg/injection, schedule: Q01DX005 (ip), vehicle: saline with Tween-80 100 % of control | dose: 120.0 mg/kg/injection, schedule: Q01DX005 (ip), vehicle: saline with Tween-80 106 % of control | dose: 240.0 mg/kg/injection, schedule: Q01DX005 (ip), vehicle: saline with Tween-80 102 % of control

O=C1CCSC(=S)N1c1ccc(Cl)c(C(F)(F)F)c1
inactive: dose: 25.0 mg/kg/injection, schedule: Q01DX009 (ip), vehicle: saline 101 % of control and 91 % of control | dose: 50.0 mg/kg/injection, schedule: Q01DX009 (ip), vehicle: saline 100 % of control and 106 % of control and 107 % of control | dose: 100.0 mg/kg/injection, schedule: Q01DX009 (ip), vehicle: saline 110 % of control and 118 % of control and 98 % of control | dose: 200.0 mg/kg/injection, schedule: Q01DX009 (ip), vehicle: saline 100 % of control and 119 % of control

CN(C)C1=NC(NC(C)(C)C)(N(C)C)OC(N(C)C)=N1 (stereo not drawn)
inactive: [6] 100 % of control | [7] 100 % of control | [20] 104 % of control

OCC1OC(n2cnc3c(Cl)ncnc32)CC1O (stereo not drawn)
inactive: [7] 94 % of control | [20] 92 % of control | dose: 200.0 mg/kg/injection, schedule: Q01DX005 (ip), vehicle: saline 102 % of control

CNc1ccc(F)cc1SSc1cc(F)ccc1NC
inactive: dose: 25.0 mg/kg/injection, schedule: Q01DX009 (ip), vehicle: Klucel (hydroxypropylcellulose) (HPC) 108 % of control | dose: 50.0 mg/kg/injection, schedule: Q01DX009 (ip), vehicle: Klucel (hydroxypropylcellulose) (HPC) 110 % of control | dose: 100.0 mg/kg/injection, schedule: Q01DX009 (ip), vehicle: Klucel (hydroxypropylcellulose) (HPC) 115 % of control

CCOC(=O)c1cc2ccccc2c(-c2ccccc2)c1C(=O)OCC
inactive: dose: 100.0 mg/kg/injection, schedule: Q01DX001 (ip), vehicle: saline with Tween-80 97 % of control | dose: 200.0 mg/kg/injection, schedule: Q01DX001 (ip), vehicle: saline with Tween-80 96 % of control | dose: 400.0 mg/kg/injection, schedule: Q01DX001 (ip), vehicle: saline with Tween-80 90 % of control

O=S1(=O)OCCO1
inactive: [5] 106 % of control | [6] 108 % of control

C1CCC2(CC1)OCCCO2
inactive: dose: 100.0 mg/kg/injection, schedule: Q01DX001 (ip), vehicle: Klucel (hydroxypropylcellulose) (HPC) 94 % of control | dose: 200.0 mg/kg/injection, schedule: Q01DX001 (ip), vehicle: Klucel (hydroxypropylcellulose) (HPC) 99 % of control | dose: 400.0 mg/kg/injection, schedule: Q01DX001 (ip), vehicle: Klucel (hydroxypropylcellulose) (HPC) 107 % of control

C=C(c1ccc(N(CC)CC)cc1)c1ccc(N(CC)CC)cc1
inactive: [11] 95 % of control | [12] 103 % of control | [13] 90 % of control

Fc1ccc(N2C(c3ccccc3)=N[C@@H](N3CCOCC3)[C@@H]2N2CCOCC2)cc1
inactive: [8] 102 % of control | [9] 100 % of control | [10] 93 % of control
